Bounds are passed on as bounds.

A short description of the series: physchem. The note with it: HBS, aqueous buffer.

Molecule `Clc1ccc(COC(Cn2ccnc2)c2ccc(Cl)cc2Cl)cc1` (stereo not shown) [econazole, [(dichloro-2,4 phenyl)-2(chloro-4 benzoyloxy)-2 ethyl]-1 imidazole nitrate] showed a solubility of under 100 µg/mL.

In general, solubility refers to the dissolved amount per volume that the medium holds. A high value points to much dissolved substance.

Values taken from patent publication US20080026049A1, “LIPOSOMAL COMPOSITIONS FOR PARENTERAL DELIVERY OF AGENTS” (priority 2005, published 2008).
